The source of these data is US8703813B2, “Compound with spiro chiral carbon backbone, preparation method thereof, and pharmaceutical composition containing the same” (SNU R & DB Foundation, priority 2008, dated 2014).

Data set [1] concerns C3H/10T1/2 cells. The data set is described as follows: Adipocyte differentiation inhibitory ability (Oil Red O staining). It is filed as cell-based, mouse. The conditions noted are these: C3H/10T1/2, 10 μg/ml. On the procedure:
C3H/10T1/2 cells, which are mouse mesenchymal progenitor cells purchased from ATCC, were diluted in DMEM (Dulbecco's Modified Eagle Medium) medium containing 5.958 g/L HEPES, 3.7 g/L sodium bicarbonate and 10% FBS (fetal bovine serum), and cultured in 24-well culture plates at a density of 4×10^4 cells/well, in the presence of 5% CO2 at 37° C. for 2 days. When the cultured cells were grown to 90˜100% confluency in the culture plates, the cells were cultured in DMEM medium containing 10% FBS, to which 5μ/ml insulin, 1 μM dexamethason, and 5 μM troglitazone were added, in the presence of 5% CO2 at 37° C. for 8 days, to induce differentiation into adipocyte. The medium was exchanged every other day during differentiation. The C3H/10T1/2 cell line, in which differentiation into the adipocyte was induced, was fixed with 3.7% formaldehyde at room temperature for 30 minutes. An oil Red O solution dissolved in isopropanol at a concentration of 0.5% was diluted in distilled water at a ratio of 6:4, filtered through a 0.2 μm filter, and poured to the fixed cell line, which was stained for 1 hour. In order to observe only the cells differentiated into the adiopocyte, the dye solution was removed and the cells were washed with distilled water two times.
116V specimen extracted from sponge was dissolved in DMSO solvent, and allowed to treat C3H/10T1/2 cell lines, which are mouse mesenchymal progenitor cells, at concentrations of 1, 2.5, 5, 10, and 20 μg/ml. […] Then, after specimens of the compound 1 (1163), the compound 2 (1162), the compound 3 (1161), and the compound 4 (1164), which were purely separated from the 116V and 116VI species were obtained, the same experiment was performed. […] Remarkable cytotoxicity was not observed in each of the specimens during differentiation of adipocytes (FIG. 8).

Data set [2] in a line: Solubility in organic solvents. The class given is physicochemical.
In data set [3] the test system is C3H/10T1/2 cells. Description: Osteoblast formation activity (calcium deposition assay, Alizarin Red S). The conditions noted are these: for osteoblast differentiation ability: C3H/10T1/2, calcium deposition; for concentration of maximum osteoblast differentiation activity: C3H/10T1/2, tested 1-20 ug/ml; for concentration at which cytotoxicity was observed: C3H/10T1/2 during osteoblast differentiation. It is filed as cell-based, mouse. On the procedure: C3H/10T1/2 cells, which are mouse mesenchymal progenitor cells purchased from ATCC, were diluted in DMEM (Dulbecco's Modified Eagle Medium) medium containing 5.958 g/L HEPES, 3.7 g/L sodium bicarbonate, and 10% FBS (fetal bovine serum), and cultured in 24-well culture plates at a density of 4×10^4 cells/well, in the presence of 5% CO2 at 37° C. for 2 days. The cultured cells were grown to 90˜100% confluency in the culture plates, the cells were cultured in DMEM medium containing 10% FBS, to which 10 mM of β-glycerophosphate and 50μ/ml of ascorbic acid were added, in the presence of 5% CO2 at 37° C. for 6 days, to induce differentiation into osteoblast. The medium was exchanged every other day during differentiation. The C3H/10T1/2 cell line, in which differentiation into the osteoblast was induced, was washed with PBS (Phosphate Buffered Saline) once, and fixed with 70% ethanol at 20° C. for 1 hour. The cells after fixing were washed with cold PBS three times, and stained with 40 mM Alizarin Red S dye solution at room temperature for 20 minutes. The dye solution was removed and the cells were washed with distilled water three times in order to selectively observe only the cells differentiated into the osteoblast.
An aliquot 116V and an aliquot 116VI extracted and partitioned from sponges are dissolved in a DMSO solvent, and used to treat the C3H/10T1/2 cell line, mesenchymal progenitor cells, at concentrations of 1, 2.5, 5, 10, and 20 ug/ml. […] Since then, the same experiment was performed on the compound (1163), the compound 2 (1162), the compound 3 (1161), and the compound 4 (1164), which were purely separated from the aliquots 116V and 116VI, and as a result, it could be confirmed that the osteoblast differentiation ability was increased in the compounds 1, 3, and 4. […] To study a mechanism with respect to osteoblast differentiation ability, the C3H/10T1/2 cell lines were treated with the compound 1 and the compound 4 for 6 days, respectively. […] Also, the C3H/10T1/2 cell lines were treated with the compound 1 and the compound 4 for 6 days, respectively. […] Furthermore, it could be ascertained that combining of Runx2 and TAZ proteins was increased by treatment of the compounds and thus the activity of Runx2-meditated transcription was increased. The compound 5, which is an ester derivative of the compound 1 (1163), was synthesized in order to prepare a material having more excellent bioactivity, and the structure of the compound 5 obtained thus was determined. […] Therefore, the compounds of the present invention and derivatives thereof are expected to promote the differentiation of the osteoblast and thus play an innovative role in treatment of osteoporosis.

The next data set deals with Runx2, Osteocalcin, Msx2. The data set is described as follows: Real time PCR of osteoblast differentiation mark factors. The class given is cell-based, mouse. As to conditions: C3H/10T1/2 treated for 6 days, RTPCR. The method, then: (§1) An aliquot 116V and an aliquot 116VI extracted and partitioned from sponges are dissolved in a DMSO solvent, and used to treat the C3H/10T1/2 cell line, mesenchymal progenitor cells, at concentrations of 1, 2.5, 5, 10, and 20 ug/ml. […] Since then, the same experiment was performed on the compound (1163), the compound 2 (1162), the compound 3 (1161), and the compound 4 (1164), which were purely separated from the aliquots 116V and 116VI, and as a result, it could be confirmed that the osteoblast differentiation ability was increased in the compounds 1, 3, and 4. […] To study a mechanism with respect to osteoblast differentiation ability, the C3H/10T1/2 cell lines were treated with the compound 1 and the compound 4 for 6 days, respectively. […] Also, the C3H/10T1/2 cell lines were treated with the compound 1 and the compound 4 for 6 days, respectively. […] Furthermore, it could be ascertained that combining of Runx2 and TAZ proteins was increased by treatment of the compounds and thus the activity of Runx2-meditated transcription was increased. The compound 5, which is an ester derivative of the compound 1 (1163), was synthesized in order to prepare a material having more excellent bioactivity, and the structure of the compound 5 obtained thus was determined. […]
(In general: Quantitative PCR measures a nucleic acid by following its amplification.)

The subject of another data set is Runx2 and TAZ. The data set is described as follows: Western blot of osteoblast differentiation mark factors. It is filed as cell-based, mouse. The conditions noted are these: C3H/10T1/2 treated for 6 days. On the procedure: as §1
In general terms: A western blot detects proteins with antibodies after separation by electrophoresis.

In the case of `CC(=O)OCC1=C[C@@]2(C=C(C)C[C@H](/C=C(\C)CCC=C(C)C)O2)O[C@H]2C=C(C)C(=O)C[C@@H]12` [Compound 2], the adipocyte differentiation ability entry with C3H/10T1/2 cells [1] is on record as “remarkably decreased”. Moreover, the Solubility result in data set [2] is recorded as “Easily Dissolved in Organic Solvent of Acetone, Methanol, DMSO, etc”.
`CC(=O)O[C@@H]1C[C@H]2C(CO)=C[C@@]3(C=C(C)C[C@H](/C=C(\C)CCC=C(C)C)O3)O[C@H]2C=C1C` [Compound 3]: in the data set on C3H/10T1/2 cells [3], the osteoblast differentiation ability result is listed as “increased”, the “concentration of maximum osteoblast differentiation activity” value is 2.5 µg/mL and the “concentration at which cytotoxicity was observed” value is above 2500 ng/mL. Further, the adipocyte differentiation ability result with C3H/10T1/2 cells [1] is on record as “remarkably decreased”. Also, the Solubility result in data set [2] was “Easily Dissolved in Organic Solvent of Acetone, Methanol, DMSO, etc”.
`CC(=O)O[C@H]1C[C@H]2C(CO)=C[C@@]3(C=C(C)C[C@H](/C=C(\C)CCC=C(C)C)O3)O[C@H]2C=C1C` [Compound 4]: in the data set on C3H/10T1/2 cells [3], the osteoblast differentiation ability entry was “increased”, the “concentration of maximum osteoblast differentiation activity” value was determined as 5 µg/mL and the “concentration at which cytotoxicity was observed” value is above 5000 ng/mL. Also, the “transcription degree of differentiation mark factors (Runx2, Osteocalcin, Msx2, etc.)” value with Runx2, Osteocalcin, Msx2 is “remarkably increased”. The “protein expression of Runx2 and TAZ” value with Runx2 and TAZ is reported as “increased”. In the data set on C3H/10T1/2 cells [1], the adipocyte differentiation ability result is reported as “remarkably decreased”. Moreover, the Solubility result in data set [2] is “Easily Dissolved in Organic Solvent of Acetone, Methanol, DMSO, etc”.
As for `CCCC(=O)OCC1=C[C@@]2(C=C(C)C[C@H](/C=C(\C)CCC=C(C)C)O2)O[C@H]2C=C(C)C(=O)C[C@@H]12` [Compound 5], in the data set on C3H/10T1/2 cells [3], the osteoblast differentiation ability entry is given as “promoted differentiation of the osteoblast in a similar degree as that of the compound 1”.
In the case of `CC1=C[C@@]2(C=C(CO)[C@@H]3CC(=O)C(C)=C[C@@H]3O2)O[C@@H](/C=C(\C)C/C=C/C(C)(C)O)C1` [Compound 9], the Solubility entry in data set [2] is given as “Easily Dissolved in Organic Solvent of Acetone, Methanol, DMSO, etc”.
For the molecule `C=C(C)C(O)CC/C(C)=C/[C@H]1CC(C)=C[C@@]2(C=C(CO)[C@@H]3CC(=O)C(C)=C[C@@H]3O2)O1` (some centres unmarked) [Compound 10], the Solubility entry in data set [2] is given as “Easily Dissolved in Organic Solvent of Acetone, Methanol, DMSO, etc”.
